# “Also recorded” adds a separate entry of the source.
# Tests used:
# [1] = tested on: CHO cells expressing human APP; assay: Secreted Aβ40/Aβ42 ELISA in medium of CHO-APP cells; assay type: cell-based, Chinese hamster; parameters: key to Aβ42-lowering activity: Aβ42-lowering activity (“Yes”); no profound effects (“No”); non-determined (“ND”); Ginsenosides that affected cell viability are indicated as “Cytotoxic.”; conditions: for Aβ42-lowering activity: Tables 1-3; for inhibitory effects on Aβ40 and Aβ42 production: 8 hours of incubation, ginsenosides from white ginseng
# Experimental: The CHO cells were treated with the indicated compounds (at 50 μg/ml) for 8 hrs. Aβ42 levels in the medium were measured by ELISA and normalized to intracellular full-length APP.
# The potential effects of ginsenosides and their analogues in treating AD were examined. First, a number of ginsenosides were screened based on their effects on Aβ generation. The effects of various ginsenosides on Aβ (e.g., Aβ40 and Aβ42) production was initially accessed by incubating the Chinese hamster ovary (CHO) cells expressing human APP(CHO-APP cells) with each ginsenoside purified from unprocessed ginseng (known as “white ginseng”). These representative ginsenosides included Rb1, Rb2, Rc, Rd, Re, Re, Rg1 and Rg2 and differ in their side chains and sugar moieties.
# After 8 hours of incubation, the media were collected and the levels of secreted Aβ40 and Aβ42 were determined by ELISA.
# Steaming ginseng at high temperature gave rise to additional ginsenosides with enhanced pharmacological activity, including (20S)Rg3, Rk1 and Rg5 (22-25). Next, the effects of these heat-processing derived ginsenosides (e.g., (20S)Rg3, Rh1, Rh2, Rk1, Rg6, Rg5) on Aβ40 and Aβ42 generation were tested. […] In contrast, Aβ42 levels were not affected by (20R)Rg3, Rh1, and Rg6. Aβ40 levels were not changed by treatment with any of the ginsenosides tested. The potency of Aβ42-lowering activity was highest with Rk1 and (20S)Rg3. […] The secretion of Aβ40 was affected by treatment with Rk1 only at very high concentration (˜100 μM) and cell viability was not affected by treatment of Rk1 under these conditions (up to 100 μM, 8 hour treatment; data not shown). […] Overnight treatment with Rgk351, Rk1, and Rg5 also reduce Aβ42 production in CHO-APP cells (FIG. 12B). […] These studies provide a structure-activity relationship between the chemical structures of ginsenosides and Aβ42-lowering activity, further providing the basis for designing additional Aβ42-lowering analogues as well as for defining a class of compounds that harbor Aβ42-lowering activity.
# [2] = tested on: Neuro2a cells expressing the human Swedish mutant form of APP; assay: Aβ generation in Neuro2a-SW cells; assay type: cell-based, mouse; conditions: for levels of Aβ42 / production of Aβ42: Neuro2a-SW, also CHO cells expressing wild-type human APP
# Excerpt: FIG. 16 depicts the effects of two major metabolites of ginsenosides, including 20(S)-protopanaxatriol (PPT) and 20(S)-protopanaxadiol (PPD) on Aβ42 generation. 20(S)-panaxatriol (PT) and 20(S)-panaxadiol (PD) are the artificial derivatives of PPT and PPPD, respectively.
# Ginsenosides are metabolized by human intestinal bacteria after oral administration of ginseng extract (Kobayashi K., et al., Metabolism of ginsenoside by human intestinal bacteria [II] Ginseng Review 1994; 18: 10-14; Hasegawa H., et al., Main ginseng saponin metabolites formed by intestinal bacteria. Planta Med. 1996; 62: 453-457.). Therefore, the effects of two major metabolites of ginsenosides, including 20(S)-protopanaxatriol (PPT) and 20(S)-protopanaxadiol (PPD) on Aβ42 generation were tested. 20(S)-panaxatriol (PT) and 20(S)-panaxadiol (PD) are the artificial derivatives of PPT and PPPD, respectively.
# [3] = tested on: CHO-APP/PS1 cells; assay: Secreted Aβ40/Aβ42 ELISA in CHO-APP/PS1 cells; assay type: cell-based, Chinese hamster; conditions: 50 μM, 8 hrs
# Experimental: FIG. 10 depicts the effects of native ginsenosides on Aβ42 production. CHO cells stably transfected with human APP695 together with either wild-type (A, CHO-APP/PS1 cells) or ΔE9 FAD mutant (B, CHO-APP/ΔE9PS1 cells) forms of PS1 were used. Cells were treated with the indicated compounds (at 50 μM) for 8 hrs. Levels of secreted Aβ40 and Aβ42 in the medium were determined by ELISA and normalized to intracellular full-length APP. In CHO-APP/PS1 cells, average Aβ amounts in control samples were 320 pM for Aβ40 and 79 pM for Aβ42. The relative levels of Aβ and Aβ42 were normalized to values obtained from non-treated and vehicle-treated cells and are shown as % to control+s.d.). One of three representative experiments are shown.
# CHO-APP/PS1 (A) and CHO-APP/ΔE9PS1 (B) cells were treated with the indicated compounds at 50 μM for 8 hrs and the levels of secreted Aβ40 and Aβ42 were determined as described in FIG. 1. […] The PS1-ΔE9 FAD mutation diminished the Aβ42 response to Rk1 treatment (B).
# [4] = tested on: γ-secretase; assay: Cell-free generation of intracellular domains (AICD, NICD, p75-ICD) in membrane fractions of 293 cells; assay type: biochemical; conditions: membrane fractions from 293 cells overexpressing APP, Notch-ΔE or p75-ΔE
# Experimental: Membrane fractions isolated from 293 cells overexpressing either APP (A), Notch-ΔE (B) or p75-ΔE (C) and incubated in the presence of indicated compounds: Compound E (CpdE, general γ-secretase inhibitor), Rgk351, Rk1 and sulindac sulfide (SS).
# Since the effect of Rk1 was rather selective to Aβ42 (but not Aβ40) in a cell-based assay, the question of whether Rk1 affects other γ-secretase-mediated cleavage events, including the generation of AICD resulted from a transmembrane cleavage of APP distal from either Aβ40 or Aβ42 site, and γ-secretase-mediated intramembrane cleavage of Notch1 or p75 neurotrophin receptor (p75NTR) to yield Notch1 or p75NTR intracellular domains (NICD or p75-ICD, respectively) was tested. The cell-free generation of AICD, NICD and p75-ICD was not affected by incubation with Rgk351 or Rk1 (FIG. 5).
# [5] = tested on: γ-secretase; assay: Cell-free γ-secretase assay (CHAPSO-solubilized membrane fractions, Aβ ELISA); assay type: biochemical; conditions: cell-free γ-secretase assay, partially purified γ-secretase complex; 100 μM
# Experimental: (A) CHAPSO-solubilized membrane fractions were incubated with recombinant γ-secretase substrates together with the indicated compounds (at 100 μM) and the levels of Aβ42 and Aβ40 were determined by ELISA as described (27-29). (B) Dose-response of Aβ40 and Aβ42-lowering activity of Rk1 and (20S)Rg3 in a cell-free γ-secretase assay.
# Next, the inhibitory effects of Rk1 and (20S)Rg3 on Aβ generation in an in vitro γ-secretase assay was studied. […] In contrast, naproxen, an NSAID without Aβ42-lowering activity, had no effects on Aβ42 production (FIG. 15A).
smiles,measurement,setting,value
"CC(C)=CCCC(C)(O)[C@H]1CC[C@]2(C)[C@@H]1[C@H](O)C[C@@H]1[C@@]3(C)CC[C@H](O)C(C)(C)[C@@H]3CC[C@]12C (stereo in doubt) [PPD, Protopanaxadiol]",Aβ42-lowering activity,[1],No
same,inhibitory effects on Aβ40 or Aβ42 generation,[2],did not confer any inhibitory effects
CC(C)=CCC[C@@](C)(O)[C@H]1CC[C@]2(C)[C@@H]1[C@H](O)C[C@@H]1[C@@]3(C)CC[C@H](O[C@@H]4O[C@H](CO)[C@@H](O)[C@H](O)[C@H]4O[C@@H]4O[C@H](CO)[C@@H](O)[C@H](O)[C@H]4O)C(C)(C)[C@@H]3CC[C@]12C [(20R)Rg3],"generation of Aβ42 (Aβ42 levels in the medium, ELISA, normalized to intracellular full-length APP)","[1]; CHO cells stably transfected with human APP695, 50 μg/ml, 8 hrs",reduce
same,Aβ42-lowering activity,[1],Yes
same,secretion of Aβ42 (initial screening),[1]; heat-processing derived ginsenosides,not affected
same,potency of Aβ42-reducing activity (order),[3],Rk1>/=(20S)Rg3>Rg5>(20R)Rg3
C[C@H](NC(=O)Cc1cc(F)cc(F)c1)C(=O)N[C@H]1N=C(c2ccccc2)c2ccccc2N(C)C1=O [Compound E],"cell-free generation of AICD, NICD and p75-ICD",[4],Very low amounts; also recorded: efficiently inhibited
"CC1(C)CCC[C@](C)([C@H]2CC[C@]3(C)[C@@H]2[C@H](O)C[C@@H]2[C@@]4(C)CC[C@H](O)C(C)(C)[C@@H]4CC[C@]23C)O1 [PD, 20(S)-panaxadiol]",inhibitory effects on Aβ40 or Aβ42 generation,[2],did not confer any inhibitory effects
"CC(C)=CCC[C@](C)(O)[C@H]1CC[C@]2(C)[C@@H]1[C@H](O)C[C@@H]1[C@@]3(C)CC[C@H](O)C(C)(C)[C@@H]3[C@@H](O)C[C@]12C [PPT, Protopanaxatiol]",Aβ42-lowering activity,[1],Yes
same,levels of Aβ42,[2],without affecting
same,production of Aβ42,[2],reduced
"CC1(C)CCC[C@](C)([C@H]2CC[C@]3(C)[C@@H]2[C@H](O)C[C@@H]2[C@@]4(C)CC[C@H](O)C(C)(C)[C@@H]4[C@@H](O)C[C@]23C)O1 [PT, 20(S)-panaxatriol]",levels of Aβ42,[2],without affecting
same,production of Aβ42,[2],reduced
CC(C)=CCC[C@](C)(O[C@@H]1O[C@H](CO[C@@H]2O[C@H](CO)[C@@H](O)[C@H](O)[C@H]2O)[C@@H](O)[C@H](O)[C@H]1O)[C@H]1CC[C@]2(C)[C@@H]1[C@H](O)C[C@@H]1[C@@]3(C)CC[C@H](O[C@@H]4O[C@H](CO)[C@@H](O)[C@H](O)[C@H]4O[C@@H]4O[C@H](CO)[C@@H](O)[C@H](O)[C@H]4O)C(C)(C)[C@@H]3CC[C@]12C [Rb1],inhibitory effects on Aβ40 and Aβ42 production,[1],None
same,Aβ42-lowering activity,[1],No
CC(C)=CCC[C@](C)(O[C@@H]1O[C@H](CO[C@@H]2OC[C@H](O)[C@H](O)[C@H]2O)[C@@H](O)[C@H](O)[C@H]1O)[C@H]1CC[C@]2(C)[C@@H]1[C@H](O)C[C@@H]1[C@@]3(C)CC[C@H](O[C@@H]4O[C@H](CO)[C@@H](O)[C@H](O)[C@H]4O[C@@H]4O[C@H](CO)[C@@H](O)[C@H](O)[C@H]4O)C(C)(C)[C@@H]3CC[C@]12C [Rb2],inhibitory effects on Aβ40 and Aβ42 production,[1],None
same,Aβ42-lowering activity,[1],No
CC(C)=CCC[C@](C)(O[C@@H]1O[C@H](CO[C@@H]2OC[C@@H](O)[C@H](O)[C@H]2O)[C@@H](O)[C@H](O)[C@H]1O)[C@H]1CC[C@]2(C)[C@@H]1[C@H](O)C[C@@H]1[C@@]3(C)CC[C@H](O[C@@H]4O[C@H](CO)[C@@H](O)[C@H](O)[C@H]4O[C@@H]4O[C@H](CO)[C@@H](O)[C@H](O)[C@H]4O)C(C)(C)[C@@H]3CC[C@]12C [Rb3],Aβ42-lowering activity,[1],No
CC(C)=CCC[C@](C)(O[C@@H]1O[C@H](CO)[C@@H](O)[C@H](O)[C@H]1O)[C@H]1CC[C@]2(C)[C@@H]1[C@H](O)C[C@@H]1[C@@]3(C)CC[C@H](O)C(C)(C)[C@@H]3[C@@H](O[C@@H]3O[C@H](CO)[C@@H](O)[C@H](O)[C@H]3O)C[C@]12C [Rg1],inhibitory effects on Aβ40 and Aβ42 production,[1],None
same,Aβ42-lowering activity,[1],No
same,production of Aβ42 in cells (summary statement),"[1]; mammalian cells, in vitro",no amyloid reducing activity in vitro
C=C(CCC=C(C)C)[C@H]1CC[C@]2(C)[C@@H]1[C@H](O)C[C@@H]1[C@@]3(C)CC[C@H](O)C(C)(C)[C@@H]3[C@@H](O[C@@H]3O[C@H](CO)[C@@H](O)[C@H](O)[C@H]3O)C[C@]12C [Rk3],Aβ42-lowering activity,[1],No
"COc1ccc2cc([C@H](C)C(=O)O)ccc2c1 [naproxen, reference compound]",Aβ42 generation in vitro,[5],no effects
"CSc1ccc(/C=C2/C(C)=C(CC(=O)O)c3cc(F)ccc32)cc1 [sulindac sulfide, reference compound]",Aβ40 production,"[1]; overnight treatment, CHO-APP cells",slightly affected
same,Aβ42 generation in vitro,[5],potently inhibited
same,"cell-free generation of AICD, NICD and p75-ICD",[4],abundantly produced
same,"cell-free generation of AICD, NICD and p75-ICD",[4]; listed as sulinac sulfide,did not affect
